The results in this text go back to patent publication US9546164B2 (GENENTECH, INC., priority 2013, dated 2017).

Where a name gives a salt, the structure may show the parent alone.

For one assay, the target named is hNav1.7 (Homo sapiens (Human), UniProt Q15858). In words: Tritiated sulfonamide competitive binding to membranes from cells expressing hNav1.7 and the β1 subunit.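 Also: Filter-bound radioactivity counted by liquid scintillation, nonspecific binding defined with excess unlabelled ligand, IC50 fitted to percent inhibition of specific binding.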
hNav1.7, sequence (Q15858 other isoform, or with tags, fused parts or gaps): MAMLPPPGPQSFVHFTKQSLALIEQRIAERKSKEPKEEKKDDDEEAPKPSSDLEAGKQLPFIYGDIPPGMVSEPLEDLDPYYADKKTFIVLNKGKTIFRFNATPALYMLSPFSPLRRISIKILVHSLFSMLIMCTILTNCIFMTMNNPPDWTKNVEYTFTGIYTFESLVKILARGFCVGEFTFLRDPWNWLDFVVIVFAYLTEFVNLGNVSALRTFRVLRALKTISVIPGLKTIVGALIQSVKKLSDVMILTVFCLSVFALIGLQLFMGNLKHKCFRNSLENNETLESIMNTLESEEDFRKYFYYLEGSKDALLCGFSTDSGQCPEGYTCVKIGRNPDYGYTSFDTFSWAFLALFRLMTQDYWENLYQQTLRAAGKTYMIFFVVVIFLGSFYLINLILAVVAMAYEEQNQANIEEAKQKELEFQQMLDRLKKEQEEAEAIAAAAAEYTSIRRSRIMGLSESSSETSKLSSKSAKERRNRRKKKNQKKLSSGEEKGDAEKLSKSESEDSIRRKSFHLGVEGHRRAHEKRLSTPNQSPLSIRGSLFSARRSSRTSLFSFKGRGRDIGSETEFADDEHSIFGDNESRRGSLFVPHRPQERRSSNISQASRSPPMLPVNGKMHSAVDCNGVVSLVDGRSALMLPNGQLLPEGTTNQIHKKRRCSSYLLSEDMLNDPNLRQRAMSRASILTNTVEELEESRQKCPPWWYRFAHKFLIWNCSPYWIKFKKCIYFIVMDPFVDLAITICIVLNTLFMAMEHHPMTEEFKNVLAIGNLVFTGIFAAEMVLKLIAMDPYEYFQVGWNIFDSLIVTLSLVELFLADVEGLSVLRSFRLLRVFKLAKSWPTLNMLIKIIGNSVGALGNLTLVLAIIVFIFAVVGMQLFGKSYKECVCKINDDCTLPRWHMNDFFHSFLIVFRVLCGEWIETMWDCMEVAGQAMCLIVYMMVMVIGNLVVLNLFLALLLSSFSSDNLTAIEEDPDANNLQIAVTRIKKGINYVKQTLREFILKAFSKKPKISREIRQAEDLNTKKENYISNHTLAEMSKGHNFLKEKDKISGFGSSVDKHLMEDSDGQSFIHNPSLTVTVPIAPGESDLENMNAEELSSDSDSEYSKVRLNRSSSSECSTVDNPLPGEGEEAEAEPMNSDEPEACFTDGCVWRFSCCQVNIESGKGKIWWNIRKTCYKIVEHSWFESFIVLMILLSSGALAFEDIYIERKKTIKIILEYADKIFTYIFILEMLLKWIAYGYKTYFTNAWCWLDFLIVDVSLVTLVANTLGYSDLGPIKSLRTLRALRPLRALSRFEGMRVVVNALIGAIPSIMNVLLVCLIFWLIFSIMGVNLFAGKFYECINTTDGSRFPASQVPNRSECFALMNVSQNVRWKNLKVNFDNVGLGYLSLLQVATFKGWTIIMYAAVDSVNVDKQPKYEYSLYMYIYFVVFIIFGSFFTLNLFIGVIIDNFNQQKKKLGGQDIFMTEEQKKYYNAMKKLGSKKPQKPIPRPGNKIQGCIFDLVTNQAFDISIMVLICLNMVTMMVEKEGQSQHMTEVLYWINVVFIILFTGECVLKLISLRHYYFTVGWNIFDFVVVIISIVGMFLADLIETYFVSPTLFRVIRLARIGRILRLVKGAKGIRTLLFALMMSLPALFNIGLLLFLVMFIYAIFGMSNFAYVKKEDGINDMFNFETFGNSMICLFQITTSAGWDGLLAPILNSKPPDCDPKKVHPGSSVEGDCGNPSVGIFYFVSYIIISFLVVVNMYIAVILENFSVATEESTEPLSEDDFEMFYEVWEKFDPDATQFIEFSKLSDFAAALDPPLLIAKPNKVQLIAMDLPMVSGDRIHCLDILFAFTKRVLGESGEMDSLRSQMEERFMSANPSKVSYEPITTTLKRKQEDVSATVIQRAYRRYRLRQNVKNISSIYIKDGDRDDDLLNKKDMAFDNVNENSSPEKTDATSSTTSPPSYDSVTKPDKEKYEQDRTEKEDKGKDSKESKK
hNav1.7, sequence (Q07699 19-218 partner): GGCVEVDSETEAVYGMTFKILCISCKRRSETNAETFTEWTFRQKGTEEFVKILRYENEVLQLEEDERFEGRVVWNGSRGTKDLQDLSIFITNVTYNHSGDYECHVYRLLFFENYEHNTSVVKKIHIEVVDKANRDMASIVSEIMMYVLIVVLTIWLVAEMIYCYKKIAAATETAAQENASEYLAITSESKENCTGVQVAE
Details: not given
As for `O=C(NS(=O)(=O)C1CC1)c1cc(C2CC2)c(CN2CCC(Oc3cc(Cl)cc(OC(F)(F)F)c3)CC2)cc1F` [Example 549, 4-((4-(3-chloro-5-(trifluoromethoxy)phenoxy)piperidin-1-yl)methyl)-5-cyclopropyl-N-(cyclopropylsulfonyl)-2-fluorobenzamide, trifluoroacetic acid salt], the IC50 is 4.4 nM.

For the compound `CS(=O)(=O)NC(=O)c1cc(C2CC2)c(O[C@@H]2CCCN(Cc3ccccc3Cl)C2)cc1F` [Example 24, (R)-4-((1-(2-chlorobenzyl)piperidin-3-yl)oxy)-5-cyclopropyl-2-fluoro-N-(methylsulfonyl)benzamide], the IC50 turned out to be 6 nM.

Compound `O=C(NS(=O)(=O)N1CCC1)c1cc(C2CC2)c(O[C@@H]2CCCN(Cc3ccc(F)cc3C(F)(F)F)C2)cc1F` [Example 36, (R)—N-(azetidin-1-ylsulfonyl)-5-cyclopropyl-2-fluoro-4-((1-(4-fluoro-2-(trifluoromethyl)benzyl)piperidin-3-yl)oxy)benzamide] registered an IC50 of 3.6 nM.

Staying with this assay, now noted: read-out: Ligand Binding Assay; 100 pM [3H]compound, membranes with hNav1.7 and β1 subunit, 18 h, room temperature.
Consider `CCS(=O)(=O)NC(=O)c1cc(C2CC2)c(OCC2CCN([C@@H](c3cc(Cl)cc(Cl)c3)C(F)F)CC2)cc1F` [Example 226, (S)-5-cyclopropyl-4-((1-(1-(3,5-dichlorophenyl)-2,2-difluoroethyl)piperidin-4-yl)methoxy)-N-(ethylsulfonyl)-2-fluorobenzamide], for which the IC50 was determined as 12 nM.

Regarding `CS(=O)(=O)NC(=O)c1cc(C2CC2)c(OCC2CCN(Cc3cccc(F)c3)CC2)cc1F` [Example 88, 4-((1-(3-Fluorobenzyl)piperidin-4-yl)methoxy)-5-cyclopropyl-2-fluoro-N-(methylsulfonyl)benzamide], the IC50 was determined as 92.8 nM.

Turning to `CS(=O)(=O)NC(=O)c1cc(C2CC2)c(OCC2CN(S(=O)(=O)c3cc(Cl)cc(Cl)c3)C2)cc1F` [Example 274, 5-Cyclopropyl-4-((1-((3,5-dichlorophenyl)sulfonyl)azetidin-3-yl)methoxy)-2-fluoro-N-(methylsulfonyl)benzamide], the IC50 is 68 nM.

As to `CS(=O)(=O)NC(=O)c1cc(C2CC2)c(OCC2CCN(C(c3cc(Cl)cc(Cl)c3)C(F)(F)F)CC2)cc1F` (stereo not shown) [Example 299, 5-cyclopropyl-4-((1-(1-(3,5-dichlorophenyl)-2,2,2-trifluoroethyl)piperidin-4-yl)methoxy)-2-fluoro-N-(methylsulfonyl)benzamide], the IC50 came to 1.9 nM.

Turning to `C[C@H](c1ccc(F)cc1Cl)N1C[C@H]2C[C@@H]1[C@H](Oc1cc(F)c(C(=O)NS(C)(=O)=O)cc1C1CC1)C2` [Example 451, 4-(((1R,4s,6R)-2-((R)-1-(2-chloro-4-fluorophenyl)ethyl)-2-azabicyclo[2.2.1]heptan-6-yl)oxy)-5-cyclopropyl-2-fluoro-N-(methylsulfonyl)benzamide, trifluoroacetic acid salt], the IC50 amounted to 25.7 nM.

With `C[C@@H]1CC[C@@H](COc2cc(F)c(C(=O)NS(C)(=O)=O)cc2C2CC2)CN1[C@H](C)c1cc(Cl)cc(Cl)c1` [Example 343, 5-cyclopropyl-4-(((3R,6R)-1-((R)-1-(3,5-dichlorophenyl)ethyl)-6-methylpiperidin-3-yl)methoxy)-2-fluoro-N-(methylsulfonyl)benzamide, trifluoroacetic acid salt], the IC50 is 8.4 nM.

Consider `CS(=O)(=O)NC(=O)c1cc(C2CC2)c(OC[C@@H]2CCCN(Cc3ccc(F)cc3Cl)C2)cc1F` [Example 332, (R)-4-((1-(2-chloro-4-fluorobenzyl)piperidin-3-yl)methoxy)-5-cyclopropyl-2-fluoro-N-(methylsulfonyl)benzamide], for which the IC50 stood at 35.2 nM.

On to `COC[C@H](c1ccc(Cl)cc1Cl)N1CCC(COc2cc(F)c(C(=O)NS(C)(=O)=O)cc2C2CC2)CC1` [Example 282, (S)-5-cyclopropyl-4-((1-(1-(2,4-dichlorophenyl)-2-methoxyethyl)piperidin-4-yl)methoxy)-2-fluoro-N-(methylsulfonyl)benzamide], for which the IC50 was found to be 4.4 nM.

Take `CS(=O)(=O)NC(=O)c1cc(C2CC2)c(OCC2CN(Cc3ccccc3)C2)cc1F` [Example 74, -((1-benzylazetidin-3-yl)methoxy)-5-cyclopropyl-2-fluoro-N-(methylsulfonyl)benzamide]: the IC50 came to 3600 nM.

As for `C[C@H](c1ccc(Cl)cc1Cl)N1CCC(COc2cc(F)c(C(=O)NS(C)(=O)=O)cc2C2CC2)CC1` [Example 239, (R)-5-cyclopropyl-4-((1-(1-(2,4-dichlorophenyl)ethyl)piperidin-4-yl)methoxy)-2-fluoro-N-(methylsulfonyl)benzamide], the IC50 stood at 3.4 nM.

On to `CS(=O)(=O)NC(=O)c1cc(C2CC2)c(OCC2CN([C@@H](c3ccccc3)c3cccnc3)C2)cc1F` [Example 82], for which the IC50 was 408 nM.

As to `CS(=O)(=O)NC(=O)c1cc(C2CC2)c(OCC2CCN(Cc3ncccc3C(F)(F)F)CC2)cc1F` [Example 365, 5-cyclopropyl-2-fluoro-N-(methylsulfonyl)-4-((1-((3-(trifluoromethyl)pyridin-2-yl)methyl)piperidin-4-yl)methoxy)benzamide, trifluoroacetic acid salt], the IC50 came to 327 nM.

As for `CS(=O)(=O)NC(=O)c1cc(C2CC2)c(OCC2CCN(C(=O)c3ccccc3)CC2)cc1F` [Example 197, 4-((1-Benzoylpiperidin-4-yl)methoxy)-5-cyclopropyl-2-fluoro-N-(methylsulfonyl)benzamide], the IC50 was found to be 3200 nM.

As to `O=C(NS(=O)(=O)C1CC1)c1cc(C2CC2)c(OCC2CCN(Cc3ncccc3C(F)(F)F)CC2)cc1F` [Example 364, 5-cyclopropyl-N-(cyclopropylsulfonyl)-2-fluoro-4-((1-((3-(trifluoromethyl)pyridin-2-yl)methyl)piperidin-4-yl)methoxy)benzamide, trifluoroacetic acid salt], the IC50 is 80.6 nM.

Turning to `O=C(NS(=O)(=O)C1CC1)c1cc(C2CC2)c(OCC2CCN(S(=O)(=O)c3ccc(C(F)(F)F)cc3Cl)CC2)cc1F` [Example 385, 4-((1-((2-chloro-4-(trifluoromethyl)phenyl)sulfonyl)piperidin-4-yl)methoxy)-5-cyclopropyl-N-(cyclopropylsulfonyl)-2-fluorobenzamide], the IC50 turned out to be 10 nM.

Take `CS(=O)(=O)NC(=O)c1cc(C2CC2)c(OCC2CCN(C(c3cc(Cl)cc(Cl)c3)C(F)F)CC2)cc1F` (stereo in doubt) [Example 225, (S)-5-cyclopropyl-4-((1-(1-(3,5-dichlorophenyl)-2,2-difluoroethyl)piperidin-4-yl)methoxy)-2-fluoro-N-(methylsulfonyl)benzamide]: the IC50 was 17 nM.

In the case of `CC1(COc2cc(F)c(C(=O)NS(C)(=O)=O)cc2C2CC2)CCN(C(=O)c2cc(Cl)c(Cl)cc2F)CC1` [Example 577, 5-cyclopropyl-4-((1-(4,5-dichloro-2-fluorobenzoyl)-4-methylpiperidin-4-yl)methoxy)-2-fluoro-N-(methylsulfonyl)benzamide], the IC50 was 40 nM.

For `COC[C@H](c1ccc(Cl)c(Cl)c1)N1CCC(COc2cc(F)c(C(=O)NS(C)(=O)=O)cc2C2CC2)CC1` (single isomer, unassigned) [Example 265], the IC50 is 100 nM.

In the case of `COc1cc(OC(F)(F)F)ccc1CN1CCC[C@@H](Oc2cc(F)c(C(=O)NS(C)(=O)=O)cc2C2CC2)C1` [Example 438, (R)-5-cyclopropyl-2-fluoro-4-((1-(2-methoxy-4-(trifluoromethoxy)benzyl)piperidin-3-yl)oxy)-N-(methylsulfonyl)benzamide, trifluoroacetic acid salt], the IC50 was determined as 9.5 nM.

For the compound `CS(=O)(=O)NC(=O)c1cc(C2CC2)c(O[C@@H]2CCCN(Cc3ccccc3-c3ccccc3)C2)cc1F` [Example 442, (R)-4-((1-([1,1′-biphenyl]-2-ylmethyl)piperidin-3-yl)oxy)-5-cyclopropyl-2-fluoro-N-(methylsulfonyl)benzamide, trifluoroacetic acid salt], the IC50 stood at 3.1 nM.

For the compound `CC(c1cccc(Cl)c1)N1CCC(COc2cc(F)c(C(=O)NS(C)(=O)=O)cc2C2CC2)CC1` (stereo not shown) [Example 148, 4-((1-(1-(3-Chlorophenyl)ethyl)piperidin-4-yl)methoxy)-5-cyclopropyl-2-fluoro-N-(methylsulfonyl)benzamide], the IC50 is 15 nM.

Turning to `CS(=O)(=O)NC(=O)c1cc(C2CC2)c(OCC2CCN(C(=O)c3ccccc3C(F)(F)F)CC2)cc1F` [Example 255], the IC50 stood at 1100 nM.

For the compound `CS(=O)(=O)NC(=O)c1cc(C2CC2)c(O[C@@H]2CCCN(S(C)(=O)=O)C2)cc1F` [Example 314, (R)-5-cyclopropyl-2-fluoro-N-(methylsulfonyl)-4-((1-(methylsulfonyl)piperidin-3-yl)oxy)benzamide], the IC50 was over 10000 nM.

On to `CS(=O)(=O)NC(=O)c1cc(C2CC2)c(OCC2CN([C@H](c3ccccc3)c3ccc(S(C)(=O)=O)cc3)C2)cc1F` [Example 96, (R)-5-Cyclopropyl-2-fluoro-N-(methylsulfonyl)-4-((1-((4-(methylsulfonyl)phenyl)(phenyl)methyl)azetidin-3-yl)methoxy)benzamide], for which the IC50 was 429 nM.

With `O=C(NS(=O)(=O)N1CCC1)c1cc(C2CC2)c(OC[C@@H]2CCCN(Cc3ccc(F)cc3Cl)C2)cc1F` [Example 333], the IC50 came out at 20.7 nM.

In the case of `CS(=O)(=O)NC(=O)c1cc(C2CC2)c(OCC2CN([C@H](c3ccccc3)c3cc(Cl)cc(Cl)c3)C2)cc1F` [Example 143], the IC50 came out at 2.6 nM.

On to `CCS(=O)(=O)NC(=O)c1cc(C2CC2)c(OCC2CCN(C(C)(C)c3cc(Cl)cc(Cl)c3)CC2)cc1F` [Example 210, 5-Cyclopropyl-4-((1-(2-(3,5-dichlorophenyl)propan-2-yl)piperidin-4-yl)methoxy)-N-(ethylsulfonyl)-2-fluorobenzamide], for which the IC50 is 1.9 nM.

Consider `CS(=O)(=O)NC(=O)c1cc(C2CC2)c(CN2[C@@H]3CC[C@H]2C[C@@H](Oc2cc(C(F)(F)F)c(Cl)cn2)C3)cc1F` [Example 550, 4-(((1R,3r,5S)-3-((5-chloro-4-(trifluoromethyl)pyridin-2-yl)oxy)-8-azabicyclo[3.2.1]octan-8-yl)methyl)-5-cyclopropyl-2-fluoro-N-(methylsulfonyl)benzamide, trifluoroacetic acid salt], for which the IC50 was 13.6 nM.
